Values quoted from earlier work as cited in patent publication EP3125915B1, “PROCESS FOR PREPARING A POWDERED MIXTURE OF BORNEOL AND PLANT PROTEINS TO BE USED AS DIETARY OR FOOD SUPPLEMENT, AND RELATED DIETARY OR FOOD SUPPLEMENT” (priority 2014, dated 2015).
Read-outs that look alike come from different tables or passages of the source. Blank lines part the entries; values can stand above or below the compound they belong to.

Legend:
[1] = with borneol
[2] = not given; remark: listed apart in the source
[3] = not given; remark: listed apart in the source
[4] = with borneol; remark: listed apart in the source
[5] = with borneol; remark: listed apart in the source
[6] = with borneol; remark: listed apart in the source

Structure (SMILES): OCc1ccc(O[C@@H]2O[C@H](CO)[C@@H](O)[C@H](O)[C@H]2O)cc1 [gastrodin]
peak time of gastrodin in the plasma ([2]; administration of gastrodin alone): 30 min | peak time of gastrodin in the plasma ([2]; gastrodin co-administrated with borneol): 5 to 15 min | bioavailability of gastrodigenin in the brain was increased by ([2]; gastrodin co-administrated with borneol, compared with gastrodin alone): 33.6-108.8%

Structure (SMILES): COC(=O)C1=CO[C@@H](O[C@@H]2O[C@H](CO)[C@@H](O)[C@H](O)[C@H]2O)[C@@H]2C(CO)=CC[C@H]12 [geniposide]
brain delivery of geniposide ([3]; borneol high dose increasing from 2.0 g/kg to 4.0 g/kg): decreased | delivery of geniposide in the rat brain ([3]; borneol low dose range of 0.05-2.0 g/kg): increases | permeability of geniposide ([4]; cortex and striatum regions): no change | permeability of geniposide ([4]; hippocampus and hypothalamus regions): increase

Structure (SMILES): Cc1ncc(CNC(=O)N(CCCl)N=O)c(N)n1 [nimustine]
bioavailability of nimustine in the CSF [5]: increase

Next, values leading:

oral bioavailability of TMPP in brain tissue, times increased than that without borneol (oral borneol 15 mg kg^-1): 1.12 times | oral bioavailability of TMPP in mice plasma, times increased than that without borneol (oral borneol 15 mg kg^-1): 1.52 times | oral bioavailability of TMPP in brain tissue, times increased than that without borneol (oral borneol 30 mg kg^-1): 1.62 times | oral bioavailability of TMPP in mice plasma, times increased than that without borneol (oral borneol 30 mg kg^-1): 2.21 times | oral bioavailability of TMPP in brain tissue, times increased than that without borneol (oral borneol 90 mg kg^-1): 1.93 times | oral bioavailability of TMPP in mice plasma, times increased than that without borneol (oral borneol 90 mg kg^-1): 2.95 times
Structure (SMILES): Cc1nc(C)c(C)nc1C.O=P(O)(O)O [TMPP, tetramethylpyrazine phosphate]

bioavailability of carbamazepine [1]: significantly improve
Structure (SMILES): NC(=O)N1c2ccccc2C=Cc2ccccc21 [carbamazepine]

absorption of quercetin in mice brain tissue [6]: improves
Structure (SMILES): O=c1c(O)c(-c2ccc(O)c(O)c2)oc2cc(O)cc(O)c12 [quercetin]
